From ChEMBL document CHEMBL4414569, “Myxochelin- and Pseudochelin-Derived Lipoxygenase Inhibitors from a Genetically Engineered Myxococcus xanthus Strain” (J Nat Prod, 2019)
Active and inactive are the calls of the source. The calls are words filed in the database; no cut-off is given here.

molecular target: T1, Polyunsaturated fatty acid 5-lipoxygenase (Homo sapiens, UniProt P09917); assay: Inhibition of recombinant human 5-lipoxygenase using arachidonic acid as substrate preincubated for 10 mins followed by susbtrate addition and measured after 10 mins by reverse phase HPLC method
T1 sequence (P09917 whole entry): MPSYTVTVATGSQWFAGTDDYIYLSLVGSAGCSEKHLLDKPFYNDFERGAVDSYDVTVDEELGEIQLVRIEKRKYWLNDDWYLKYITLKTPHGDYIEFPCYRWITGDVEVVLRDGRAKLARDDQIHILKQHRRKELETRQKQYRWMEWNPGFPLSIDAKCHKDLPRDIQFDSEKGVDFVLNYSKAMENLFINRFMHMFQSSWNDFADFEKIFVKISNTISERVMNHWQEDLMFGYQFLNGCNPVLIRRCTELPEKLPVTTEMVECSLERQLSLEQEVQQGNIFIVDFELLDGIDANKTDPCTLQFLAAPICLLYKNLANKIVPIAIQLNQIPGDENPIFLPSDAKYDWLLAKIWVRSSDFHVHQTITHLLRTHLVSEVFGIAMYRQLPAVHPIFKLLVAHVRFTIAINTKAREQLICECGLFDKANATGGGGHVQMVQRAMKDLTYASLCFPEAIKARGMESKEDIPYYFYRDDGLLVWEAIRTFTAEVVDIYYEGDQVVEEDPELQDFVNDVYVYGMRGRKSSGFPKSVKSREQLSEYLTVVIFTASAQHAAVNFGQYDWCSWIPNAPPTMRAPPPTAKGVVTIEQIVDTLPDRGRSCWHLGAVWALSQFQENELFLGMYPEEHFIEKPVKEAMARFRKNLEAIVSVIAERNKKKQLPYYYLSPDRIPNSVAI

| Compound | IC50 [nM] |
| --- | --- |
| NC[C@H](CCCCNC(=O)c1cccc(O)c1O)NC(=O)c1cccc(O)c1O | 1400 |
| O=C(NCCCC[C@@H](CO)NC(=O)c1cccc(O)c1O)c1cccc(O)c1O | 1900 |
| NC[C@H](CCCCNC(=O)c1ccccc1O)NC(=O)c1cccc(O)c1O | 10000 |
| O=C(NCCCC[C@H]1CN=C(c2cccc(O)c2O)N1)c1cccc(O)c1O | 900 |
| NC[C@H](CCCCNC(=O)c1cccc(O)c1O)NC(=O)c1c(O)cccc1F | 9300 |
| NC[C@H](CCCCNC(=O)c1cccc(O)c1O)NC(=O)c1ccccc1O | 5600 |
| O=C(NCCCC[C@H]1CN=C(c2c(O)cccc2F)N1)c1cccc(O)c1O | 2200 |

Second part, the compound after the results:

| IC50 [nM] | Compound |
| --- | --- |
| 1100 | O=C(NCCCC[C@H]1CN=C(c2cccc(O)c2O)N1)c1c(O)cccc1F |
| 1500 | O=C(NCCCC[C@H]1CN=C(c2ccccc2O)N1)c1cccc(O)c1O |
| > 10000 | NC[C@H](CCCCNC(=O)c1c(O)cccc1F)NC(=O)c1cccc(O)c1O |
| > 10000 | NC[C@H](CCCCNC(=O)c1ccccc1O)NC(=O)c1ccccc1O |
| > 10000 | O=C(NCCCC[C@H]1CN=C(c2ccccc2O)N1)c1ccccc1O |
| 2200 | O=C(NCCCC[C@H]1CN=C(c2cccc(O)c2O)N1)c1ccccc1O |

molecular target: T2, Polyunsaturated fatty acid 5-lipoxygenase (Homo sapiens) (UniProt P09917); assay: Inhibition of recombinant human 5-lipoxygenase at <10 uM using arachidonic acid as substrate preincubated for 10 mins followed by susbtrate addition and measured after 10 mins by reverse phase HPLC method
T2 sequence (whole entry): T1 sequence (P09917 whole entry)

| Compound | inhibition |
| --- | --- |
| NC[C@H](CCCCNC(=O)c1c(O)cccc1F)NC(=O)c1cccc(O)c1O | inactive |
| NC[C@H](CCCCNC(=O)c1ccccc1O)NC(=O)c1ccccc1O | inactive |
